According to PubChem BioAssay AID330 (DTP/NCI, 2004):
Values joined by “and” are separate entries in the source; they are usually repeats but may differ in a detail not shown here. Identical values can stand only once. Toxic doses and inconclusive results are not listed. Rule for the calls: active = survival T/C of 150% or more; inactive = T/C below 125% in these data.

Test system: P388 leukemia ip, CD2F1 mice, survival T/C
Assay: NCI In Vivo Anticancer Drug Screen. Data for tumor model P388 Leukemia (intraperitoneal) in CD2F1 (CDF1) mice
Details: endpoint: median survival time, higher = longer survival
In short: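 Mice carrying the transplanted tumor received test compound or vehicle. Survival was recorded in each group, and the value is the treated-group measurement divided by that of the vehicle-treated control group.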

[1] = dose: 12.5 mg/kg/injection, schedule: Q01DX009 (ip), vehicle: Klucel (hydroxypropylcellulose) (HPC)
[2] = dose: 25.0 mg/kg/injection, schedule: Q01DX009 (ip), vehicle: Klucel (hydroxypropylcellulose) (HPC)
[3] = dose: 25.0 mg/kg/injection, schedule: Q01DX009 (ip), vehicle: saline with Tween-80
[4] = dose: 50.0 mg/kg/injection, schedule: Q01DX009 (ip), vehicle: saline with Tween-80
[5] = dose: 100.0 mg/kg/injection, schedule: Q01DX009 (ip), vehicle: saline with Tween-80
[6] = dose: 200.0 mg/kg/injection, schedule: Q01DX009 (ip), vehicle: Klucel (hydroxypropylcellulose) (HPC)
[7] = dose: 200.0 mg/kg/injection, schedule: Q01DX009 (ip), vehicle: saline with Tween-80

Measured: T/C

CC1(CO)C(O)CCC2(C)C1CCC1CC3CC12CCC3(O)CO (configuration not stated)
inactive: dose: 0.78 mg/kg/injection, schedule: Q03HX024 (ip), vehicle: Klucel (hydroxypropylcellulose) (HPC) 106 % of control | dose: 0.78 mg/kg/injection, schedule: Q03HX024 (oral), vehicle: Klucel (hydroxypropylcellulose) (HPC) 100 % of control | dose: 1.56 mg/kg/injection, schedule: Q03HX024 (ip), vehicle: Klucel (hydroxypropylcellulose) (HPC) 93 % of control | dose: 1.56 mg/kg/injection, schedule: Q03HX024 (oral), vehicle: Klucel (hydroxypropylcellulose) (HPC) 99 % of control | dose: 3.12 mg/kg/injection, schedule: Q03HX024 (ip), vehicle: Klucel (hydroxypropylcellulose) (HPC) 100 % of control | dose: 3.12 mg/kg/injection, schedule: Q03HX024 (oral), vehicle: Klucel (hydroxypropylcellulose) (HPC) 102 % of control | dose: 6.25 mg/kg/injection, schedule: Q03HX024 (ip), vehicle: Klucel (hydroxypropylcellulose) (HPC) 102 % of control | dose: 6.25 mg/kg/injection, schedule: Q03HX024 (oral), vehicle: Klucel (hydroxypropylcellulose) (HPC) 98 % of control | [1] 109 % of control and 113 % of control | dose: 12.5 mg/kg/injection, schedule: Q03HX024 (ip), vehicle: Klucel (hydroxypropylcellulose) (HPC) 106 % of control | dose: 12.5 mg/kg/injection, schedule: Q03HX024 (oral), vehicle: Klucel (hydroxypropylcellulose) (HPC) 100 % of control | [2] 114 % of control and 91 % of control | [3] 112 % of control | dose: 25.0 mg/kg/injection, schedule: Q03HX024 (ip), vehicle: Klucel (hydroxypropylcellulose) (HPC) 119 % of control | dose: 25.0 mg/kg/injection, schedule: Q03HX024 (oral), vehicle: Klucel (hydroxypropylcellulose) (HPC) 100 % of control | dose: 25.0 mg/kg/injection, schedule: Q04DX003 (ip), vehicle: Klucel (hydroxypropylcellulose) (HPC) 100 % of control | dose: 30.0 mg/kg/injection, schedule: Q01DX005 (iv), vehicle: saline with Tween-80 109 % of control | [4] 115 % of control | dose: 50.0 mg/kg/injection, schedule: Q03HX024 (ip), vehicle: Klucel (hydroxypropylcellulose) (HPC) 120 % of control | dose: 50.0 mg/kg/injection, schedule: Q03HX024 (oral), vehicle: Klucel (hydroxypropylcellulose) (HPC) 101 % of control | dose: 50.0 mg/kg/injection, schedule: Q04DX002 (ip), vehicle: Klucel (hydroxypropylcellulose) (HPC) 97 % of control | dose: 50.0 mg/kg/injection, schedule: Q04DX003 (ip), vehicle: Klucel (hydroxypropylcellulose) (HPC) 103 % of control | dose: 60.0 mg/kg/injection, schedule: Q01DX005 (iv), vehicle: saline with Tween-80 107 % of control | dose: 60.0 mg/kg/injection, schedule: Q01DX005 (oral), vehicle: saline with Tween-80 107 % of control | dose: 75.0 mg/kg/injection, schedule: Q04DX002 (ip), vehicle: Klucel (hydroxypropylcellulose) (HPC) 105 % of control | [5] 121 % of control | dose: 100.0 mg/kg/injection, schedule: Q03HX024 (oral), vehicle: Klucel (hydroxypropylcellulose) (HPC) 111 % of control | dose: 100.0 mg/kg/injection, schedule: Q04DX002 (ip), vehicle: Klucel (hydroxypropylcellulose) (HPC) 100 % of control | dose: 100.0 mg/kg/injection, schedule: Q04DX003 (ip), vehicle: Klucel (hydroxypropylcellulose) (HPC) 114 % of control | dose: 120.0 mg/kg/injection, schedule: Q01DX005 (iv), vehicle: saline with Tween-80 100 % of control | dose: 120.0 mg/kg/injection, schedule: Q01DX005 (oral), vehicle: saline with Tween-80 103 % of control | dose: 150.0 mg/kg/injection, schedule: Q04DX002 (ip), vehicle: Klucel (hydroxypropylcellulose) (HPC) 111 % of control | [6] 92 % of control and 96 % of control | [7] 105 % of control | dose: 200.0 mg/kg/injection, schedule: Q01DX009 (oral), vehicle: saline with Tween-80 100 % of control | dose: 200.0 mg/kg/injection, schedule: Q04DX002 (ip), vehicle: Klucel (hydroxypropylcellulose) (HPC) 105 % of control | dose: 200.0 mg/kg/injection, schedule: Q04DX003 (ip), vehicle: Klucel (hydroxypropylcellulose) (HPC) 119 % of control | dose: 240.0 mg/kg/injection, schedule: Q01DX005 (ip), vehicle: saline with Tween-80 109 % of control | dose: 240.0 mg/kg/injection, schedule: Q01DX005 (iv), vehicle: saline with Tween-80 106 % of control | dose: 240.0 mg/kg/injection, schedule: Q01DX005 (oral), vehicle: saline with Tween-80 102 % of control | dose: 300.0 mg/kg/injection, schedule: Q04DX002 (ip), vehicle: Klucel (hydroxypropylcellulose) (HPC) 115 % of control | dose: 400.0 mg/kg/injection, schedule: Q01DX009 (oral), vehicle: saline with Tween-80 103 % of control | dose: 400.0 mg/kg/injection, schedule: Q04DX002 (ip), vehicle: Klucel (hydroxypropylcellulose) (HPC) 117 % of control | dose: 480.0 mg/kg/injection, schedule: Q01DX005 (oral), vehicle: saline with Tween-80 107 % of control | dose: 600.0 mg/kg/injection, schedule: Q04DX002 (ip), vehicle: Klucel (hydroxypropylcellulose) (HPC) 117 % of control | dose: 800.0 mg/kg/injection, schedule: Q01DX009 (oral), vehicle: saline with Tween-80 103 % of control | dose: 800.0 mg/kg/injection, schedule: Q04DX002 (ip), vehicle: Klucel (hydroxypropylcellulose) (HPC) 108 % of control | dose: 800.0 mg/kg/injection, schedule: Q04DX003 (ip), vehicle: Klucel (hydroxypropylcellulose) (HPC) 102 % of control | dose: 1200.0 mg/kg/injection, schedule: Q04DX002 (ip), vehicle: Klucel (hydroxypropylcellulose) (HPC) 118 % of control | dose: 1600.0 mg/kg/injection, schedule: Q01DX009 (oral), vehicle: saline with Tween-80 88 % of control

Cc1c(Cl)ccc2c(C(O)CBr)cc(-c3ccccc3)nc12 (configuration not stated)
inactive: [5] 103 % of control | [7] 109 % of control | dose: 400.0 mg/kg/injection, schedule: Q01DX009 (ip), vehicle: saline with Tween-80 100 % of control

COc1cc(OC)c(Br)cc1C
inactive: dose: 12.5 mg/kg/injection, schedule: Q01DX009 (ip), vehicle: saline with Tween-80 100 % of control | [3] 91 % of control | [4] 91 % of control | dose: 100.0 mg/kg/injection, schedule: Q04DX003 (ip), vehicle: saline with Tween-80 104 % of control | dose: 200.0 mg/kg/injection, schedule: Q04DX003 (ip), vehicle: saline with Tween-80 104 % of control | dose: 400.0 mg/kg/injection, schedule: Q04DX003 (ip), vehicle: saline with Tween-80 104 % of control

CCCCNC(=O)N(CC)c1ccccc1
inactive: dose: 100.0 mg/kg/injection, schedule: Q01DX001 (ip), vehicle: saline 109 % of control | dose: 200.0 mg/kg/injection, schedule: Q01DX001 (ip), vehicle: saline 113 % of control | dose: 400.0 mg/kg/injection, schedule: Q01DX001 (ip), vehicle: saline 109 % of control

O/N=c1\cc(-c2ccccc2)oc2ccccc12
inactive: dose: 16.7 mg/kg/injection, schedule: Q01DX009 (ip), vehicle: saline with Tween-80 97 % of control | [3] 102 % of control | dose: 37.5 mg/kg/injection, schedule: Q01DX009 (ip), vehicle: saline with Tween-80 100 % of control

COc1ccc(C2OC(=O)c3ncccc32)cc1 (configuration not stated)
inactive: [4] 102 % of control | [5] 104 % of control | [7] 104 % of control

Oc1cccnc1CN1CCOCC1
inactive: dose: 50.0 mg/kg/injection, schedule: Q01DX009 (ip), vehicle: saline 101 % of control | dose: 100.0 mg/kg/injection, schedule: Q01DX009 (ip), vehicle: saline 93 % of control | dose: 200.0 mg/kg/injection, schedule: Q01DX009 (ip), vehicle: saline 101 % of control | dose: 400.0 mg/kg/injection, schedule: Q01DX009 (ip), vehicle: saline 101 % of control

CN(C)C1=CC=C2C(=O)c3ccccc3C2(c2ccccc2)C=C1 (configuration not stated)
inactive: dose: 100.0 mg/kg/injection, schedule: Q04DX002 (ip), vehicle: saline with Tween-80 89 % of control | dose: 200.0 mg/kg/injection, schedule: Q04DX002 (ip), vehicle: saline with Tween-80 88 % of control | dose: 400.0 mg/kg/injection, schedule: Q04DX002 (ip), vehicle: saline with Tween-80 89 % of control

CC(=O)OCC1OC(S[As](C)CCO)C(OC(C)=O)C(OC(C)=O)C1OC(C)=O (configuration not stated)
inactive: [1] 103 % of control and 109 % of control | [2] 102 % of control and 113 % of control | dose: 50.0 mg/kg/injection, schedule: Q01DX009 (ip), vehicle: Klucel (hydroxypropylcellulose) (HPC) 103 % of control and 117 % of control and 122 % of control | dose: 100.0 mg/kg/injection, schedule: Q01DX009 (ip), vehicle: Klucel (hydroxypropylcellulose) (HPC) 111 % of control and 116 % of control | [6] 108 % of control

C[P+]1(CCc2ccc(Cl)cc2)CC=CC1
inactive: dose: 25.0 mg/kg/injection, schedule: Q04DX002 (ip), vehicle: saline 101 % of control | dose: 50.0 mg/kg/injection, schedule: Q04DX002 (ip), vehicle: saline 101 % of control
